According to patent US8192962B2, “Processes for detecting toxic substances” (Daikin Industries, Ltd., priority 2001, dated 2012):

Tested on: Genes belonging to other category
Assay: DNA chip mRNA expression in yeast, genes belonging to other category (Table 9)
Assay type: cell-based, Saccharomyces cerevisiae S288C
Outline: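 Expression change after 2 h toxicant exposure (growth-inhibiting, sub-lethal) of log-phase S. cerevisiae S288C at 25° C. Oligo-dT-purified mRNA was labeled with Cy3-dUTP or Cy5-dUTP and hybridized >12 h at 65° C. to a genome-wide chip; ratio of scanned fluorescence to control.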

Substance: Na2As [(1)]
- The level of expressed mRNA in the presence of chemical substance/The level of expressed mRNA in the absence of chemical substance (yeast gene YKL008C): 1.2
- The level of expressed mRNA in the presence of chemical substance/The level of expressed mRNA in the absence of chemical substance (yeast gene YKL013C): 1.4
- The level of expressed mRNA in the presence of chemical substance/The level of expressed mRNA in the absence of chemical substance (yeast gene YKL039W): 0.8
- The level of expressed mRNA in the presence of chemical substance/The level of expressed mRNA in the absence of chemical substance (yeast gene YKL041W): 1.2
- The level of expressed mRNA in the presence of chemical substance/The level of expressed mRNA in the absence of chemical substance (yeast gene YKL096W): 1.4
- The level of expressed mRNA in the presence of chemical substance/The level of expressed mRNA in the absence of chemical substance (yeast gene YKL139W): 0.9
- The level of expressed mRNA in the presence of chemical substance/The level of expressed mRNA in the absence of chemical substance (yeast gene YKL165C): 0.5
- The level of expressed mRNA in the presence of chemical substance/The level of expressed mRNA in the absence of chemical substance (yeast gene YKL193C): 1.3
- The level of expressed mRNA in the presence of chemical substance/The level of expressed mRNA in the absence of chemical substance (yeast gene YLR120C): 1.2
- The level of expressed mRNA in the presence of chemical substance/The level of expressed mRNA in the absence of chemical substance (yeast gene YLR136C): 1.3
- The level of expressed mRNA in the presence of chemical substance/The level of expressed mRNA in the absence of chemical substance (yeast gene YLR178C): 1.7
- The level of expressed mRNA in the presence of chemical substance/The level of expressed mRNA in the absence of chemical substance (yeast gene YLR250W): 1.5
- The level of expressed mRNA in the presence of chemical substance/The level of expressed mRNA in the absence of chemical substance (yeast gene YLR327C): 5.5
- The level of expressed mRNA in the presence of chemical substance/The level of expressed mRNA in the absence of chemical substance (yeast gene YLR356W): 1.0
- The level of expressed mRNA in the presence of chemical substance/The level of expressed mRNA in the absence of chemical substance (yeast gene YLR362W): 1.1
- The level of expressed mRNA in the presence of chemical substance/The level of expressed mRNA in the absence of chemical substance (yeast gene YLR429W): 0.7
- The level of expressed mRNA in the presence of chemical substance/The level of expressed mRNA in the absence of chemical substance (yeast gene YMR004W): 0.9
- The level of expressed mRNA in the presence of chemical substance/The level of expressed mRNA in the absence of chemical substance (yeast gene YMR094W): 1.0
- The level of expressed mRNA in the presence of chemical substance/The level of expressed mRNA in the absence of chemical substance (yeast gene YMR104C): 1.9
- The level of expressed mRNA in the presence of chemical substance/The level of expressed mRNA in the absence of chemical substance (yeast gene YMR219W): 0.7
- The level of expressed mRNA in the presence of chemical substance/The level of expressed mRNA in the absence of chemical substance (yeast gene YMR226C): 1.1
- The level of expressed mRNA in the presence of chemical substance/The level of expressed mRNA in the absence of chemical substance (yeast gene YMR275C): 0.7
- The level of expressed mRNA in the presence of chemical substance/The level of expressed mRNA in the absence of chemical substance (yeast gene YMR276W): 0.6
- The level of expressed mRNA in the presence of chemical substance/The level of expressed mRNA in the absence of chemical substance (yeast gene YNL006W): 1.1
- The level of expressed mRNA in the presence of chemical substance/The level of expressed mRNA in the absence of chemical substance (yeast gene YNL007C): 0.7
- The level of expressed mRNA in the presence of chemical substance/The level of expressed mRNA in the absence of chemical substance (yeast gene YNL093W): 2.1
- The level of expressed mRNA in the presence of chemical substance/The level of expressed mRNA in the absence of chemical substance (yeast gene YNL333W): 1.0
- The level of expressed mRNA in the presence of chemical substance/The level of expressed mRNA in the absence of chemical substance (yeast gene YNR010W): 1.3
- The level of expressed mRNA in the presence of chemical substance/The level of expressed mRNA in the absence of chemical substance (yeast gene YNR069C): 1.5
- The level of expressed mRNA in the presence of chemical substance/The level of expressed mRNA in the absence of chemical substance (yeast gene YOL013C): 0.9
- The level of expressed mRNA in the presence of chemical substance/The level of expressed mRNA in the absence of chemical substance (yeast gene YOL164W): 0.9
- The level of expressed mRNA in the presence of chemical substance/The level of expressed mRNA in the absence of chemical substance (yeast gene YOR036W): 1.8
- The level of expressed mRNA in the presence of chemical substance/The level of expressed mRNA in the absence of chemical substance (yeast gene YOR117W): 0.8
- The level of expressed mRNA in the presence of chemical substance/The level of expressed mRNA in the absence of chemical substance (yeast gene YOR124C): 0.6
- The level of expressed mRNA in the presence of chemical substance/The level of expressed mRNA in the absence of chemical substance (yeast gene YOR132W): 0.9
- The level of expressed mRNA in the presence of chemical substance/The level of expressed mRNA in the absence of chemical substance (yeast gene YOR157C): 1.0
- The level of expressed mRNA in the presence of chemical substance/The level of expressed mRNA in the absence of chemical substance (yeast gene YOR181W): 1.0
- The level of expressed mRNA in the presence of chemical substance/The level of expressed mRNA in the absence of chemical substance (yeast gene YOR185C): 1.1
- The level of expressed mRNA in the presence of chemical substance/The level of expressed mRNA in the absence of chemical substance (yeast gene YOR198C): 1.0
- The level of expressed mRNA in the presence of chemical substance/The level of expressed mRNA in the absence of chemical substance (yeast gene YOR259C): 0.8
- The level of expressed mRNA in the presence of chemical substance/The level of expressed mRNA in the absence of chemical substance (yeast gene YOR261C): 1.0
- The level of expressed mRNA in the presence of chemical substance/The level of expressed mRNA in the absence of chemical substance (yeast gene YOR288C): 0.9
- The level of expressed mRNA in the presence of chemical substance/The level of expressed mRNA in the absence of chemical substance (yeast gene YOR355W): 0.7
- The level of expressed mRNA in the presence of chemical substance/The level of expressed mRNA in the absence of chemical substance (yeast gene YOR383C): 0.9
- The level of expressed mRNA in the presence of chemical substance/The level of expressed mRNA in the absence of chemical substance (yeast gene YPL089C): 1.2
- The level of expressed mRNA in the presence of chemical substance/The level of expressed mRNA in the absence of chemical substance (yeast gene YPL109C): 1.1
- The level of expressed mRNA in the presence of chemical substance/The level of expressed mRNA in the absence of chemical substance (yeast gene YPL149W): 1.5
- The level of expressed mRNA in the presence of chemical substance/The level of expressed mRNA in the absence of chemical substance (yeast gene YPL154C): 0.7
- The level of expressed mRNA in the presence of chemical substance/The level of expressed mRNA in the absence of chemical substance (yeast gene YPR103W): 0.7
- The level of expressed mRNA in the presence of chemical substance/The level of expressed mRNA in the absence of chemical substance (yeast gene YPR108W): 0.8
